Several values for one entry are separate records, joined by “and”; a condition that tells them apart may be missing. Equal values may be shown once. Read-outs that look alike come from different tables or passages of the source.
Tests used:
[1] = test system: DMOxRR2Y soybean stack; test: 2,4-D postemergence injury on DMOxRR2Y soybean; assay type: in vivo; conditions: V3, 3, 30, 60, 120 and 280 g ae/ha, all rates, 20 days after treatment
Source text: A rate titration of 2,4-D (2,4-D amine, Helena Chemical Co., Memphis, Tenn.) was applied as postemergence (POST) treatment at V3 growth state of breeding stack of DMO soybean and RR2Y (RR2Y is MON89788 event, U.S. application Ser. No. 11/441,914) transgenic soybean. 2,4-D was applied as a postemergence (POST) treatment (V3) at 5 application rates on DMOxRR2Y soybean stack and compared for total crop injury across all application rates. The POST herbicide application rates used for this trial were 3 g ae/ha (acid equivalent/hectare), 30 g ae/ha, 60 g ae/ha, 120 g ae/ha and 280 g ae/ha of 2,4-D. The treated plants were rated for 2,4-D symptoms 20 days after treatment.

[2] = test system: haploid seeds of corn genotype 01DKD2; test: Haploid corn seed pretreatment before colchicine doubling; assay type: in vivo; conditions: seeds imbibed 24 hours before 0.0625% colchicine; for Doubling efficiency: water 5; for 10 inch pot survival: water 53; for Percent Pollination: water 81; for Percent germination: water 90
Method: The use of these chemicals during the doubling process is toxic and stressful to the treated plant or seed. […] To determine quantify the effect of acetyl salicylic acid (ASA) and salicylic acid (SA) on plant health of haploid plants subjected to colchicine treatments, haploid seeds of corn genotype 01DKD2 were treated with 100-500 microMolar (μM) of DCSA, ASA, or SA or combinations thereof by imbibing the seeds in a solution of the compound for 24 hours before colchicine treatment of the seeds. A solution of 0.0625% colchicine (Sigma Aldrich, St. Louis, Mo. Cat#C3915) and 1.5% DMSO (Sigma Aldrich, St. Louis, Mo. Cat#D8779) was used to treat the seeds and the seeds incubated in the solution at 25° C. for 5 days in the dark. The germination rate, survival rate of the treated plants, fertility, and doubling rate were measured.

[3] = test system: Verticillium (isolate King); test: Verticillium wilt protection in cotton, isolate King; assay type: in vivo, Verticillium dahliae; conditions: cotton ST6611, DCSA 1 lb/A, glyphosate 0.75 lb/A, 24 hours before inoculation
Source text: (§1) DCSA was unexpectedly found to provide protection to cotton plants against Verticillium dahliae, causal agent of cotton wilt disease (Table 6). Cotton plants of the variety ST6611, BOLLGARD 2, ROUNDUP READY FLEX, were inoculated with a moderate isolate (DPL) or a virulent isolate (King) of Verticillium by a seedling dipping method. Seedlings at the first true leaf stage were taken out from the pots, one inch of roots were cut off, seedlings were dipped in a spore slurry for one minute, and then transplanted back in the pots. These strains were isolated and provided by Dr. Terry Wheeler (Texas A&M University, TX USA). DCSA was applied at the rate of 1 lb/A and glyphosate (ROUNDUP WEATHERMAX, Monsanto Company, St. Louis, Mo.) at the rate of 0.75 lb/A 24 hours before inoculation. Protection against Verticillium was measured on a disease severity scale of 1-9:1 being healthy and 9 being dead because of disease, and also was measured as the number of plants that survived out of 10 inoculated plants.

[4] = test system: Verticillium (isolate DPL); test: Verticillium wilt protection in cotton, isolate DPL; assay type: in vivo, Verticillium dahliae; conditions: cotton ST6611, DCSA 1 lb/A, glyphosate 0.75 lb/A, 24 hours before inoculation
Source text: as §1

[5] = test system: cotton plants; test: Paraquat (Gramoxone) oxidative stress injury in cotton; assay type: in vivo; conditions: 2 DAT, DCSA (if given) 1 lb/Acre 24 hours before
Method: Four different cotton cultivars as indicated in Table 3 were grown in 4-inch pots for two weeks. These cotton plants were either sprayed with DCSA (BASF) at the 1 lb/A rate, or unsprayed (no DCSA application, as control). Experimental plants (treated with DCSA and untreated) were sprayed with Paraquat (Gramoxone®; Syngenta) at 30 gm/ha, 70 gm/ha, and 100 gm/ha rates, 24 hours after the application of DCSA, to simulate oxidative stress. […] The same experiment was repeated at two different growth stages of cotton (2 nodes stage and 5 nodes stage).

[6] = test system: soybean plants; conditions: for % injury: N3001 non-transgenic soybean, 4 DAT, ANOVA mean; for % injury at 5 DAT Paraquat alone control 100 g ae/ha: paraquat alone 100 g ae/ha
Method: For this example, the plants were grown as described in the above example. Transgenic and non transgenic soybean plants carrying the DMO gene in their genome were either treated with Paraquat (Gramoxone®; Syngenta) to create oxidative stress or with dicamba followed by Paraquat at V3 stage. The dicamba rate was 1 lb/Acre or 1120 g ae/ha. […] Plants were then evaluated for paraquat injury by visually assessing injury at a particular day after treatment (DAT) for injury on a scale of 0 to 100 percent relative to untreated control plants, with zero representing “no” injury and 100% representing “complete” injury or death. Data were collected and analyzed using suitable statistical methods.
In another experiment, the effect of externally applied DCSA was tested for its benefit in protecting soybean plants from oxidative stress injury caused by Paraquat. Different amounts of DCSA were applied 24 hrs before applying Paraquat to test any correlation between the amount of DCSA applied and the extent of protection obtained from oxidative stress measured in terms of reduction in % injury as described above. Different levels of dicamba were also applied separately to test the same hypothesis.

[7] = test system: soybean plants; test: Copper injury on soybeans; assay type: in vivo; conditions: 1000 ppm copper sulfate foliar spray alone; soybean V1-2; 5 days after treatment
Source text: Plants are sensitive to heavy metal toxicity. Heavy metals are present in the environment or sometimes applied to plants for pest control. Symptoms of plant injury following treatment with a heavy metal compound, for example, a compound containing copper, are necrotic leaf spotting and flecking with more severe injury resulting in larger reddish brown spots, […] necrosis and/or necrotic puckered leaves.

| SMILES | Doubling efficiency ([2]; 100 μM (each)) | 10 inch pot survival ([2]; 100 μM (each)) | Percent Pollination ([2]; 100 μM (each)) [%] | Percent germination ([2]; 100 μM (each)) [%] | Doubling efficiency ([2]; 250 μM (each)) | 10 inch pot survival ([2]; 250 μM (each)) | Percent Pollination ([2]; 250 μM (each)) [%] | Percent germination ([2]; 250 μM (each)) [%] | Doubling efficiency ([2]; 500 μM (each)) | 10 inch pot survival ([2]; 500 μM (each)) | Percent Pollination ([2]; 500 μM (each)) [%] | Percent germination ([2]; 500 μM (each)) [%] | also measured |
| --- | --- | --- | --- | --- | --- | --- | --- | --- | --- | --- | --- | --- | --- |
| CNC.O=C(O)COc1ccc(Cl)cc1Cl [2,4-D] |  |  |  |  |  |  |  |  |  |  |  |  | POST 2,4-D injury compared to treated non-transgenic control A3525 [1]: significantly (ANOVA test) lower |
| O=C(O)c1ccccc1O [SA, salicylic acid] | 2 | 48 | 83 | 80 | 3 | 58 | 85 | 85 | 3 | 77 | 89 | 85 |  |
| O=C(O)CNCP(=O)(O)O [Glyphosate, N-phosphonomethylglycine, reference compound] |  |  |  |  |  |  |  |  |  |  |  |  | Severity rating (1-9) ([3]; 1 healthy, 9 dead, inoculated check 9): 3.5; Plant survival rating (out of 10) ([3]; inoculated check 0): 10; Severity rating (1-9) ([4]; 1 healthy, 9 dead, inoculated check 5): 2; Plant survival rating (out of 10) ([4]; inoculated check 8): 10 |
| CC(=O)Oc1ccccc1C(=O)O [ASA, acetyl salicylic acid] | 0 | 62 | 86 | 87 | 8 | 60 | 78 | 85 | 5 | 35 | 71 | 68 |  |
| C[n+]1ccc(-c2cc[n+](C)cc2)cc1 [Paraquat] |  |  |  |  |  |  |  |  |  |  |  |  | Percentage injury ([5]; cotton ST3273B2RF, Gramoxone 30 g a.i./ha): 35%; Percentage injury ([5]; cotton ST3273B2RF, Gramoxone 70 g a.i./ha): 50%; Percentage injury ([5]; cotton ST3273B2RF, Gramoxone 100 g a.i./ha): 50%; Percentage injury ([5]; cotton ST4575BR, Gramoxone 30 g a.i./ha): 37.5%; Percentage injury ([5]; cotton ST4575BR, Gramoxone 70 g a.i./ha): 42.5%; Percentage injury ([5]; cotton ST4575BR, Gramoxone 100 g a.i./ha): 65%; Percentage injury ([5]; cotton ST4646B2RF, Gramoxone 30 g a.i./ha): 31.5%; Percentage injury ([5]; cotton ST4646B2RF, Gramoxone 70 g a.i./ha): 42.5%; Percentage injury ([5]; cotton ST4646B2RF, Gramoxone 100 g a.i./ha): 70%; Percentage injury ([5]; cotton ST6622RF, Gramoxone 30 g a.i./ha): 42.5%; Percentage injury ([5]; cotton ST6622RF, Gramoxone 70 g a.i./ha): 50%; Percentage injury ([5]; cotton ST6622RF, Gramoxone 100 g a.i./ha): 70%; % injury ([6]; paraquat 30 g ae/ha at V-3): 32.5%; % injury ([6]; paraquat 70 g ae/ha at V-3): 50.8%; % injury ([6]; paraquat 200 g ae/ha at V-3): 75%; injury rate ([6]; transgenic plants contacted with Paraquat alone (Table 2)): about 75%; % injury at 5 DAT Paraquat alone control 100 g ae/ha ([6]; transgenic soybean event 462-1-21): 75.83%; % injury at 5 DAT Paraquat alone control 100 g ae/ha ([6]; transgenic soybean event 469-13-19): 77.50% |
| O=S(=O)([O-])[O-].[Cu+2] [Cu, copper sulfate] |  |  |  |  |  |  |  |  |  |  |  |  | Percent injury [7]: 45% and 45.0a Percent |

— patent US20130244875A1, “METHODS AND COMPOSITIONS FOR IMPROVING PLANT HEALTH” (priority 2006, published 2013)
